This passage reports IC50 results from patent publication US11091460B2, “Syk inhibitor and use method therefor” (CHIA TAI TIANQING PHARMACEUTICAL GROUP CO., LTD., priority 2017, dated 2021).

The target of one experiment is T1, SYK kinase (Homo sapiens, UniProt P43405).
T1 construct: purchased Invitrogen PV3857
Put plainly: In vitro test of the inhibition effect on SYK kinase (HTRF). As to conditions: tyrosine kinase 0.0156 ng/μL, substrate 0.2 uM, ATP 2 uM, 23° C. 1 hour, read-out: Inhibit SYK kinase IC50. In kind it is biochemical. The protocol: Experimental Example 1: In Vitro Test of the Inhibition Effect of the Example Compounds on SYK Kinase
Adenosine triphosphate concentration was controlled at 2 uM. • 4) Loaded with a Multidrop automatic dispenser, and a mixture of tyrosinase solution and tyrosine kinase-substrate-biotin/adenosine triphosphate was added in an amount of 5 ul per well, and incubated at 23° C. for 1 hour. • c) Detection phase: • 1) Added 13.33 mL of ethylenediaminetetraacetic acid solution to the Detection Buffer in the kit, added the specified amount of […] (Eu)-labeled antibody and streptavidin XL-665, and prepared the detection solution. • 2) Loaded with a Multidrop automatic dispenser, and 10 uL of the detection solution per well, incubated at 23° C. for 1 hour. It terminated the reaction of the enzyme and substrate mixture. • 3) Reading after centrifugation on a multi-function microplate reader, • d) Data Analysis: Analyzed the data with XL-Fit, and calculated the IC50 value of the compound.

Another experiment relates to AKT phosphorylation. Put plainly: In vitro test of the inhibition effect on AKT phosphorylation (ELISA, Ramos cells). As to conditions: Ramos cell line, compound 1 hour, goat anti-human IgM 10 ug/ml for 10 minutes, Phospho-AKT 1/2/3 (ser473) ELISA, read-out: Inhibit AKT phosphorylation IC50. In kind it is cell-based. The protocol: Experimental Example 2: In Vitro Test of the Inhibition Effect of the Example Compounds on AKT Phosphorylation
• 2.1 Experimental Purpose: Intracellular protein kinase AKT phosphorylation detected by experiment was measured by enzyme-linked immunosorbent assay (ELISA), and the inhibition of the compound on protein kinase AKT phosphorylation was evaluated by an index of the half-cell inhibition concentration (IC50) value of the compound. • 2.2 Experimental Materials: • Cell line: Ramos cell line • Cell culture medium (RPMI1640, Invitrogen #22400-105; 10% serum Gibco #10099-141; L-glutamine 1×, Gibco #25030-081) • Experimental medium (without serum, RPM11640, Invitrogen #22400-105; L-glutamine 1×, Gibco #25030) • Lysis buffer (trishydroxymethylaminomethane hydrochloride, Invitrogen15567-1000 ml; sodium chloride, domestic; sodium deoxycholate, Sigma30970-25 G; polyethylene glycol octylphenyl ether, SigmaT9284-100 ml; dodecane sodium sulfonate, SigmaL3771; ethylenediaminetetraacetic acid, Invitrogen15575-038-100 ml; ultrapure water, MilliQ) • Protease inhibitor (Roche, 4693159001-30/BOX) • Phosphatase inhibitor mixture 2 (Sigma, P5726-5 ML) • Phosphatase inhibitor mixture 3 (Sigma, P0044-5 ML) • Goat Anti-Human immunoglobulin M (F(ab′)2 Goat Anti-Human IgM) (Jackson Immuno Research-109-006-129) • Phosphorylated AKT assay kit (Phospho-AKT 1/2/3 (ser473)) (TGR Bioscience, EKT002) • 10× Hank's balanced salt solution (Gibco #14065-056) • 96-well cell plate (Greiner #655090) • Compound V-well dilution plate (Axygen #WITP02280) • CO2 incubator (Thermo #371) • Centrifuge (Eppendorf #581 OR) • Vi-cell cell counter (Beckman Coulter) • Pipette (Eppendorf) • Pipette (Greiner) • Pipetting gun (Eppendorf) • Multi-purpose microplate reader (Envision Reader) • 2.3 Experimental procedures and methods: • a) Cell Seeding (Ramos Cells) • 1) The medium was preheated in a 37° C. water bath. Suspended cells and their culture solution were aspirated, centrifuged at 1000 rpm for 5 minutes. • 2) Aspirated the cell culture medium, added 10 mL of pre-warmed medium to the centrifuge tube, blew off the resuspended cells, pipette 1 mL of the cell suspension, and counted with Vi-cell; • 3) The Ramos cells were diluted with a medium to a density of 5×10^6/mL, and the diluted cells were added to a 96-well cell culture plate (100 μL/well) using a lance. Placed the cell plates in a 37° C., 5% CO2 incubator for overnight. • b) Cell starvation: • 1) After cultured the inoculation cells for overnight, centrifuged at 1000 rpm for 5 minutes on the next day, aspirated the original medium by a lance, added serum-free experimental medium, placed the cell plates in a 37° C., 5% CO2 incubator, and starved for overnight. • c) Compound preparation and dosing: • 1) The compound was diluted with dimethyl sulfoxide to give an initial concentration of 5 mM. A triple gradient dilution was done with compound V dilution plate to make 10 concentration points. • 2) Took another new compound V-well dilution plate, added 198 ul of serum-free experimental medium to each well, and then added 2 ul of the diluted compound above to each well, and mixed with a lance. […]

Like-named read-outs stand apart in the source and are kept apart here.

Usually IC50 stands for the point on the concentration scale where inhibition reaches its midpoint. On to `Cn1c(=O)c(Nc2ccc(N3CCC[C@H](C(=O)O)C3)cn2)cc2c(F)c(-c3cc[nH]n3)ccc21` [Example 19, (3S)-1-[6-[[5-fluoro-1-methyl-2-oxa-6-(1H-pyrazol-3-yl)-1,2-dihydroquinolin-3-yl)amine]pyridin-3-yl]piperidine-3-carboxylic acid], for which the IC50 at SYK kinase turned out to be 0.0143 µM; in the experiment with AKT phosphorylation (Homo sapiens, Ramos), 0.388 µM.

`Cn1c(=O)c(Nc2ccc(N3CCOCC3)cc2)nc2ccc(-c3ccncc3)cc21` [Example 28, 1-Methyl-3-((4-morpholinephenyl)amino)-7-(pyridin-4-yl)quinoxaline-2(1H)-one]: the half-maximal inhibitory concentration (IC50) at SYK kinase was determined as 0.23 µM.

In the case of `Cn1c(=O)c(Nc2ccc(C(C)(C)O)cn2)cc2c(F)c(-c3cc[nH]n3)ccc21` [Example 20], the 50% inhibitory concentration (IC50) at SYK kinase was 0.0127 µM; in the experiment with AKT phosphorylation (Homo sapiens, Ramos), 0.063 µM.

As for `Cn1c(=O)c(Nc2ccc(N3CCOCC3)cc2)cc2cc(-c3cc[nH]n3)ccc21` [Example 1, 1-Methyl-3-((4-morpholinephenyl)amino)-6-(1H-pyrazol-3-yl) quinoline-2(1H)-one], the concentration for half-maximal inhibition (IC50) was found to be 0.0338 µM at SYK kinase and 0.248 µM in the experiment on AKT phosphorylation. As for `Cn1c(=O)c(Nc2ccc(N3CCOCC3)cc2)nc2ccc(-c3cnc(N)s3)cc21` [Example 58, 7-(2-Aminothiazol-5-yl)-1-methyl-3-((4-morpholinephenyl)amino)quinoxaline-2(1H)-one], the half-inhibitory concentration (IC50) at SYK kinase was found to be 0.197 µM. On to `Cn1c(=O)c(Nc2ccc(NC3CCOCC3)nc2)nc2ccc(-c3cn[nH]c3)cc21` [Example 56, 1-Methyl-7-(1H-pyrazol-4-yl)-3-((6-((tetrahydro-2H-pyran-4-yl)amino)pyridin-3-yl)amino)quinoxaline-2(1H)-one], for which the IC50 on SYK kinase worked out at 0.0292 µM. For the compound `COc1cc(Nc2nc3ccc(-c4cn[nH]c4)cc3n(C)c2=O)ccc1N1CCOCC1` [Example 51, 3-((3-Methoxy-4-morpholinephenyl)amino)-1-methyl-7-(1H-pyrazol-4-yl)quinoxaline-2(1H)one], the IC50 on SYK kinase is 0.0129 µM. Still for that read-out and setting: for `C[C@@H]1COCCN1c1ccc(Nc2cc3c(F)c(-c4cc[nH]n4)ccc3n(C)c2=O)nc1` [Example 13, (R) 5-fluoro-1-methyl-3-((5-(3-methylmorpholine)pyridin-2-yl)amino)-6-(1H-pyrazol-3-yl)quinoline-2(1H)-one] the value was 0.923 µM. On the same count and under the same terms, for `Cn1c(=O)c(Nc2ccc(N3CCOCC3)cc2)nc2ccc(-c3ncc[nH]3)cc21` [Example 30, 7-(1H-imidazol-2-yl)-1-methyl-3-((4-morpholinephenyl)amino)quinoxaline-2(1H)-one] the value was 0.461 µM; for `Cn1c(=O)c(Nc2ccc(N3CCOCC3)nc2)nc2ccc(-c3cn[nH]c3)cc21` [Example 53, 1-Methyl-3-((6-morpholinepyridin-3-yl)amino)-7-(1H-pyrazol-4-yl) quinoxaline-2(1H)one], 0.0393 µM. For `Cn1c(=O)c(Nc2ccc(N3CCOCC3)c(Cl)c2)nc2ccc(-c3cn[nH]c3)cc21` [Example 50, 3-((3-Chloro-4-morpholinephenyl)amino)-1-methyl-7-(1H-pyrazol-4-yl)quinoxaline-2(1H)-one], the IC50 on SYK kinase was determined as 0.049 µM. The same measure, in the same setting: for `C[C@H]1COCCN1c1ccc(Nc2cc3c(F)c(-c4cc[nH]n4)ccc3n(C)c2=O)nc1` [Example 14, (S) 5-fluoro-1-methyl-3-((5-(3-methylmorpholine)pyridin-2-yl)amino)-6-(1H-pyrazol-3-yl)quinoline-2(1H)-one] the value was 0.237 µM. The same measure, in the same setting: as for `Cn1c(=O)c(Nc2ccc(N3CCOCC3)cc2)nc2cc(Cl)c(-c3cn[nH]c3)cc21` [Example 42, 6-Chloro-1-methyl-3-((4-morpholinephenyl)amino)-7-(1H-pyrazol-4-yl)quinoxaline-2(1H)-one], the figure is 0.03 µM. The same measure, in the same setting: as for `Cc1cc(Nc2nc3ccc(-c4cn[nH]c4)cc3n(C)c2=O)ccc1N1CCOCC1` [Example 49], the figure is 0.0225 µM. Consider `Cn1c(=O)c(Nc2ccc(C3(O)COC3)cn2)cc2c(F)c(-c3cc[nH]n3)ccc21` [Example 22, 5-Fluoro-3-[[5-(3-hydroxyoxetan-3-yl)pyridin-2-yl]amino]-1-methyl-6-(1H-pyrazol-3-yl)quinoline-2(1H)-one], for which, at SYK kinase, the half-inhibitory concentration (IC50) was found to be 0.0385 µM. On to `CN1CCN(S(=O)(=O)c2ccc(Nc3nc4ccc(-c5cn[nH]c5)cc4n(C)c3=O)cc2)CC1` [Example 34, 1-Methyl-3-((4-((4-methylpiperazin-1-yl)sulfonyl)phenyl)amino)-7-(1H-pyrazol-4-yl)quinoxaline-2(1H)-one], for which the IC50 at SYK kinase came out at 0.026 µM. On the same count and under the same terms, for `Cn1c(=O)c(Nc2ccc(N3CCOCC3)cc2)nc2ccc(-c3cnc(N)[nH]3)cc21` [Example 57, 7-(2-Amino-1H-imidazol-5-yl)-1-methyl-3-((4-morpholinephenyl)amino)quinoxaline-2(1H)-one] the value was 0.0629 µM. Same read-out and setting: for `Cn1c(=O)c(Nc2ccc(N3CCOCC3)cn2)nc2ccc(-c3cn[nH]c3)cc21` [Example 52, 1-Methyl-3-((5-morpholinepyridin-2-yl)amino)-7-(1H-pyrazol-4-yl)quinoxaline-2(1H)one] the value was 0.0297 µM; for `Cn1c(=O)c(Nc2ccc(N3CCOCC3)cc2)nc2ccc(-c3cc[nH]n3)cc21` [Example 27, 1-Methyl-3-((4-morpholinephenyl)amino)-7-(1H-pyrazol-3-yl) quinoxaline-2(1H)-one], 0.078 µM. Turning to `CCS(=O)(=O)N1CCN(c2ccc(Nc3nc4ccc(-c5cn[nH]c5)cc4n(C)c3=O)cc2)CC1` [Example 36, 3-((4-(4-(Ethylsulfonyl)piperazin-1-yl)phenyl)amino)-1-methyl-7-(1H-pyrazol-4-yl)quinoxaline-2(1H)-one], the IC50 at SYK kinase was 0.0064 µM.

As for `Cn1c(=O)c(Nc2ccc(N3CCOCC3)cc2)nc2ccc(-c3cn[nH]c3)c(Cl)c21` [Example 43, 8-Chloro-1-methyl-3-((4-morpholinephenyl)amino)-7-(1H-pyrazol-4-yl)quinoxaline-2(1H)-one], on SYK kinase, the IC50 was determined as 0.116 µM. Still for that read-out and setting: for `Cn1c(=O)c(Nc2ccc(N3CCOCC3)cc2)nc2ccc(-c3nccs3)cc21` [Example 32, 1-Methyl-3-((4-morpholinephenyl)amino)-7-(thiazol-2-yl)quinoxaline-2(1H)-one] the value was 0.212 µM. Regarding `Cn1c(=O)c(Nc2cccc(N3CCN(S(C)(=O)=O)CC3)c2)nc2ccc(-c3cn[nH]c3)cc21` [Example 40, 1-Methyl-3-((3-(4-(methylsulfonyl)piperazin-1-yl)phenyl)amino)-7-(1H-pyrazol-4-yl)quinoxaline-2(1H)-one], the concentration for half-maximal inhibition (IC50) at SYK kinase came to 0.163 µM. As for `Cn1c(=O)c(Nc2ccc(N3CCC(O)(C(F)(F)F)CC3)cn2)cc2cc(-c3cc[nH]n3)ccc21` [Example 5], at SYK kinase, the half-inhibitory concentration (IC50) was found to be 0.0584 µM. With `Cn1c(=O)c(Nc2ccc(N3CCOCC3)cc2F)nc2ccc(-c3cn[nH]c3)cc21` [Example 47, 3-((2-Fluoro-4-morpholinephenyl)amino)-1-methyl-7-(1H-pyrazol-4-yl)quinoxaline-2(1H)-one], the IC50 on SYK kinase was 0.242 µM.
